Where two headings read alike, the source gives them in different places.

The target of one data set is T1, NR1/NR2B receptor (Rattus norvegicus, UniProt P35439+Q00960).
T1 construct: from tissue; host or cells: rat cerebral cortex membranes (male Slc: Wistar rat)
The data set can be described thus: Test of binding with NMDA receptor (NR1/NR2B receptor): competition with [3H]-Ifenprodil on rat cerebral cortex membrane specimen. As for the experimental part:
Test of Binding with NMDR Receptor (NR1/NR2B Receptor)
Using Ifenprodil which is an antagonist specific for a NR1/NR2B subtype receptor as a ligand, an experiment of competition between a receptor and a test compound was performed.
Using a male Slc: Wistar rat as an animal, a brain was isolated after decapitation, and a cerebral cortex was fractionated. The cerebral cortex was homogenized with a 20-fold amount of an ice-cooled 50 mM Tris/HCl buffer (pH 7.4), and the homogenate was centrifuged at 4° C. and 27,500×g for 10 minutes. The resulting precipitate was suspended in the same buffer, and this was again centrifuged. This operation was repeated for three times, the resulting precipitate was suspended in a buffer, and this was stored at −80° C. Immediately before an experiment, the frozen suspension was thawed at room temperature, this was centrifuged at 4° C. and 27,500×g for 10 minutes, and the resulting precipitate was suspended in a buffer. Further, the suspension was diluted 10-fold with a buffer, and this was used as a membrane specimen in an experiment. In a binding experiment, to 470 μl of the membrane specimen were added […] of each of test compounds having different concentrations, 10 μl of a labeled ligand [^3H]-Ifenprodil and 10 μl GBR-12909, followed by incubation at an ice temperature for 120 minutes. A concentration of [^3H]-Ifenprodil of the labeled ligand was finally 5 nM, and a concentration of GBR-12909 was finally 3 μM. For measuring a total binding amount, DMSO as a solvent was used and, for measuring a non-specific binding amount, 100 μM Ifenprodil was used. GBR-12909 was added in order to block binding of [^3H]-Ifenprodil to non-polyamine-sensitive site. After incubation, a bound formand a free foramwere separated using Whatman GF/C filter (manufactured by Whatman), and the filter was washed with 2.5 ml ice-cooled buffer four times. The filter was immersed in liquid scintillation (Cryasol I, manufactured by Nacalai tesque), and radioactivity (dpm) was measured with a liquid scintillation counter. From a measured value, a binding inhibition rate (%) was obtained by the following equation, and a dose at which binding is inhibited 50% (IC50) was calculated. A formula of GBR-12909 (vanoxerine) is shown below.
Binding inhibition rate(%)=100−[(binding amount in the presence of test compound−non-specific binding amount)/(total binding amount−non-specific binding amount)]×100

The target in data set [1] is T2, NMDA receptor (NR1 subunit and NR2B subunit) (Mus musculus, UniProt P35438+Q01097).
T2 construct: expressed in transfected cells; host or cells: HEK293 cells, transient transfection with pcDNA3.1 plasmids
T2 sequence (Q01097 27-1482, other chains not shown): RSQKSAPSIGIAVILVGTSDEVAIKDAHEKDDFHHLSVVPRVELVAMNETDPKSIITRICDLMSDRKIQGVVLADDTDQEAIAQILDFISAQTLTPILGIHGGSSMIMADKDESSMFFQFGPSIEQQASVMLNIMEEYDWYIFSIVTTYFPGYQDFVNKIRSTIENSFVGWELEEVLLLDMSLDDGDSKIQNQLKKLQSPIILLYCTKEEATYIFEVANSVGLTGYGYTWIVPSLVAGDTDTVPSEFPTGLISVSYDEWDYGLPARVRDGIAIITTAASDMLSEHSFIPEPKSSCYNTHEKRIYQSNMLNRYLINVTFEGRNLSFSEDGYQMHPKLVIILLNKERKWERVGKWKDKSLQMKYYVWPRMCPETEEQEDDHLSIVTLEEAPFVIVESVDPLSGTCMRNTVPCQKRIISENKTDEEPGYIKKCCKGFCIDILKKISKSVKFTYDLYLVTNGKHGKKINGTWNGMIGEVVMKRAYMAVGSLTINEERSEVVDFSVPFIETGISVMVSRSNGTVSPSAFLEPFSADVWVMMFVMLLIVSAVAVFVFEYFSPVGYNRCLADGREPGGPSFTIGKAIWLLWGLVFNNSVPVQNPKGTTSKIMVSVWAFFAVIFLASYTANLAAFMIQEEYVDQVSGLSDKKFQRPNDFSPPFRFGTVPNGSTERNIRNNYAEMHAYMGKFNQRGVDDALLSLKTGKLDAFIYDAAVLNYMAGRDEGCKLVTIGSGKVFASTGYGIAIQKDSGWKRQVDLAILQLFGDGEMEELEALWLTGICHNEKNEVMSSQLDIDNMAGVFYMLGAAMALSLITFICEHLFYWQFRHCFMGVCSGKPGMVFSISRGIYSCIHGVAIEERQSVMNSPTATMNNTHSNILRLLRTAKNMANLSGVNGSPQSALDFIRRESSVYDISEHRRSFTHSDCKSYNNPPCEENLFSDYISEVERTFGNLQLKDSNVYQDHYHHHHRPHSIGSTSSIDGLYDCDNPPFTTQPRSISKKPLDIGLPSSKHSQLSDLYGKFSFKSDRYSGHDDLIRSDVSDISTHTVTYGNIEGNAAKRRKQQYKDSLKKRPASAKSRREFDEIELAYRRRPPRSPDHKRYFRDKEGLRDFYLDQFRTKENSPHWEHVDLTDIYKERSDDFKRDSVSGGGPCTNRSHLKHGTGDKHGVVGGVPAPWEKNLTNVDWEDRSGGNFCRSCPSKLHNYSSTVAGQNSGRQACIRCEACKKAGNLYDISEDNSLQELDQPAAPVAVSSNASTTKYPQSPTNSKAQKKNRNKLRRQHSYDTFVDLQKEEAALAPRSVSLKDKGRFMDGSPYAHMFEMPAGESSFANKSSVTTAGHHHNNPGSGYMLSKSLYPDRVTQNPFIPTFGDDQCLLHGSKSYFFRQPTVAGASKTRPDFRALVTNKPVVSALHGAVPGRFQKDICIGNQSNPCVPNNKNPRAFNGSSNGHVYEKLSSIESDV
The experiment in a line: Measurement of expression of NMDA receptor and Ca ion influx amount (glutamic acid/glycine-induced, HEK293 cell co-expressing NR1 and NR2B subunits, Fluo-3/AM). The data set is classed as cell-based. How it is done: Measurement of Expression of NMDA Receptor and Ca Ion Influx Amount
A complementary DNA (cDNA) of a mouse NMDA receptor subunit was transiently introduced into a HEK293 cell and, after 1 day from introduction, change in a glutamic acid/glycine-induced intracelluar Ca amount was measured using a Ca ion reactive fluorescent coloring matter.
The HEK293 cell was cultured, and passaged using a modified Dulbecco's Eagle medium (DMEM, low glucose).
The HEK293 cell (20,000/well) was seeded on a 96-well plate, a NR1 subunit and a NR2B subunit of the NMDA receptor incorporated into the pcDNA3.1 plasmid were transiently introduced into a cell, and the subunits were co-expressed. An introduction amount of a DNA was 0.025 μg in the case of the NR1 subunit, and 0.075 μg in the case of NR2B subunit per well. For the cell after introduction, cell death was inhibited using 50 μM of the NMDA receptor antagonist MK-801.
For adjusting a test compound and washing a cell, Krebs/Ringer/Hepes buffer (KRH, Ca: 5 mM) was used.
After 1 day from introduction, the NMDA receptor antagonist MK-801 was washed out using the KRH buffer, and a Ca ion indication fluorescent coloring matter Fluo-3/AM was made to be taken into the cell. Ca ion influx was induced with 20 μM glutamic acid/2 μM glycine. Change in a fluorescent amount due to Ca ion influx into the cell was measured at excitation of 480 nm using a fluorescent imaging system FDSS 3000.
From a measured value of the test compound, a Ca ion influx inhibition rate (%) was obtained by the following equation, and a dose at which influx is inhibited 50% (IC50) was calculated.
Ca ion influx inhibition rate(%)=100−[(fluorescent amount in the presence of test compound−background fluorescent amount)/(total fluorescent amount−background fluorescent)]×100

[2] abbreviates: [3H]-Ifenprodil 5 nM, GBR-12909 3 μM, rat cerebral cortex membranes, ice temperature 120 minutes, read-out: NR2B (IC50 μM).
The mark [3] stands for this setting: Ca ion influx induced with 20 μM glutamic acid/2 μM glycine, HEK293 cell with mouse NR1/NR2B, read-out: Ca2+ IC50.
Setting [4] is: same binding test, read-out: IC50 (binding with NR1/NR2B receptor).
Setting [5] is: same Ca ion influx test, read-out: IC50 (Ca ion influx inhibition).

T1 sequence (Q00960 27-1482, other chains not shown): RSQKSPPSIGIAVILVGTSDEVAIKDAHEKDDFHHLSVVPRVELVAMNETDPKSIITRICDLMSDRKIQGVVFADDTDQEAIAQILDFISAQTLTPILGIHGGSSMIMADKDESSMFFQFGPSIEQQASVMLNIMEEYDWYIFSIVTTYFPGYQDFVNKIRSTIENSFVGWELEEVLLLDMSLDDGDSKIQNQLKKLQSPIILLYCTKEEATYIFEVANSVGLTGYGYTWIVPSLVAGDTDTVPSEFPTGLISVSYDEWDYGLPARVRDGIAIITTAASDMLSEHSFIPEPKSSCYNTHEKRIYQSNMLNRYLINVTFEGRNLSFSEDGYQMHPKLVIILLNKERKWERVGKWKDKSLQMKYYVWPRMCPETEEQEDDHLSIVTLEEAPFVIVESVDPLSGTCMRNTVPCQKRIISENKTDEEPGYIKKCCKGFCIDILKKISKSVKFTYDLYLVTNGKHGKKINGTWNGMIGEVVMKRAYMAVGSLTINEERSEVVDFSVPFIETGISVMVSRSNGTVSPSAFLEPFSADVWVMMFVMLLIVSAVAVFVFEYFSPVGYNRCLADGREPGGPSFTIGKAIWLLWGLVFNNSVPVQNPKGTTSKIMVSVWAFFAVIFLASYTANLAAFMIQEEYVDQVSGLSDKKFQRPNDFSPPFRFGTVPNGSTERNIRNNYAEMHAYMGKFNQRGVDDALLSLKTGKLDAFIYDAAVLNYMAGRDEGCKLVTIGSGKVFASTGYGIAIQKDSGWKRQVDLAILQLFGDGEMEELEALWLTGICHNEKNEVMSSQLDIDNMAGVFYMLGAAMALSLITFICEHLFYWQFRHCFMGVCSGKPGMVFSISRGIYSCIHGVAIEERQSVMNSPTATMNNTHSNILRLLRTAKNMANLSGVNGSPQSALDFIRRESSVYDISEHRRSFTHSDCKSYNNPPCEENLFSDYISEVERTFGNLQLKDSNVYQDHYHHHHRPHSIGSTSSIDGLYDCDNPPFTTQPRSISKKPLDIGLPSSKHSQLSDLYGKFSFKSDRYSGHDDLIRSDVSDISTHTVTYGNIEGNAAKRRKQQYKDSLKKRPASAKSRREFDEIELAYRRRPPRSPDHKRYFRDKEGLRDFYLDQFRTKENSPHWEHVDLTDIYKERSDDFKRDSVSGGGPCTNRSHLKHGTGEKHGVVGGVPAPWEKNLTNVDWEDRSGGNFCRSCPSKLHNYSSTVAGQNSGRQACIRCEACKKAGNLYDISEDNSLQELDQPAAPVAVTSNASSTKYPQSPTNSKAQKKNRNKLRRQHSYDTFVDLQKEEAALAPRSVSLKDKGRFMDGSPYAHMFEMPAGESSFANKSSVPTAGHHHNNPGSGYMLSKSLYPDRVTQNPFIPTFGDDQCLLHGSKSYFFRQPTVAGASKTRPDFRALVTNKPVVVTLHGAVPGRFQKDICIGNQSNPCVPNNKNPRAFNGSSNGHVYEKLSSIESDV

The term melting point denotes the temperature of the solid-liquid transition. In the case of `O=C(NCC1CCN(c2ccc(C(F)(F)F)cc2)CC1)c1ccc(=O)[nH]c1` [Compound I-3], the melting point is 283 to 284 °C (dec.). Take `O=C(NC1CCN(c2ccc(Cl)cc2)CC1)c1ccc(=O)[nH]c1` [Compound I-4]: the melting point was 274 to 275 °C (dec.).

Compound `O=C(CC1(O)CCN(c2ccc(C(F)(F)F)cc2)CC1)Nc1ccc2c(c1)CCC(=O)N2` [Compound I-64] gave a melting point of 222 to 223 °C. Take `O=C(Nc1ccc2[nH]c(=O)oc2c1)C(=O)N1CCN(c2ccc(Cl)cc2)CC1` [Compound I-73]: the results for the IC50 (at NR1/NR2B receptor (setting [2]); in data set [1] (setting [3])) were 0.015 µM and 8 nM, respectively. For `O=C(Nc1ccc2[nH]c(=O)[nH]c2c1)C(=O)N1CCN(c2ccc(C(F)(F)F)cc2)CC1` [Compound I-79], in that order: 0.013 µM and 2 nM. `O=C(Nc1ccc2[nH]c(=O)[nH]c2c1)C(=O)N1CCN(c2ccc(Cl)cc2)CC1` [Compound I-84]: the figures for the IC50 (at NR1/NR2B receptor (setting [4]); in data set [1] (setting [3])) were at most 0.1 µM and 11 nM, respectively. Take `O=C(Nc1ccc2[nH]c(=O)oc2c1)C(=O)N1CCN(c2cccc(Cl)c2)CC1` [Compound I-86]: the IC50 at NR1/NR2B receptor (setting [4]) is at most 0.1 µM; in data set [1] (setting [5]), at most 100 nM. Consider `O=C(Nc1ccc2[nH]c(=O)oc2c1)C(=O)N1CCN(c2ccc(Br)cc2)CC1` [Compound I-87], for which the IC50 on NR1/NR2B receptor (setting [2]) is 0.012 µM; in data set [1] (setting [5]), at most 100 nM.

Take `O=C(Nc1ccc2[nH]c(=O)sc2c1)C(=O)N1CCN(c2ccc(Cl)cc2)CC1` [Compound I-90]: the IC50 on NR1/NR2B receptor (setting [2]) was 0.026 µM; in data set [1] (setting [5]), at most 100 nM. For `O=C(Nc1ccc2[nH]c(=O)oc2c1)C(=O)N1CCN(c2ccc(C(F)(F)F)c(F)c2)CC1` [Compound I-98], in that order: 0.015 µM and at most 100 nM.

As to `O=C(Nc1ccc2[nH]c(=O)oc2c1)C(=O)N1CCN(c2ccc(F)c(F)c2)CC1` [Compound I-99], the IC50 at NR1/NR2B receptor (setting [4]) was at most 0.1 µM; in data set [1] (setting [5]), at most 100 nM.

On to `O=C(Nc1ccc2[nH]c(=O)oc2c1)C(=O)N1CCCN(c2ccc(Cl)cc2)CC1` [Compound I-100], for which the IC50 at NR1/NR2B receptor (setting [2]) came out at 0.074 µM; in data set [1] (setting [3]), 10 nM. The corresponding values for `O=C(Nc1cnc2[nH]c(=O)[nH]c2c1)C(=O)N1CCN(c2ccc(C(F)(F)F)cc2)CC1` [Compound I-101] are 0.011 µM and 1 nM. As to `O=C(Nc1ccc2[nH]c(=O)oc2c1)C(=O)N1CCN(c2ccc(C(F)(F)F)cn2)CC1` [Compound I-103], the IC50 on NR1/NR2B receptor (setting [2]) is 0.018 µM; in data set [1] (setting [5]), at most 100 nM. For the compound `O=C(Nc1ccc2[nH]c(=O)oc2c1)C(=O)N1CCN(c2ccc(Cl)c(Cl)c2)CC1` [Compound I-104], the IC50 at NR1/NR2B receptor (setting [2]) was 0.016 µM; in data set [1] (setting [3]), 1 nM.

For `O=C(Nc1cnc2[nH]c(=O)oc2c1)C(=O)N1CCN(c2ccc(Cl)c(Cl)c2)CC1` [Compound I-105], the results for the IC50 (at NR1/NR2B receptor (setting [2]); in data set [1] (setting [3])) were 0.045 µM and 10 nM, respectively. `O=C(Nc1cnc2[nH]c(=O)oc2c1)C(=O)N1CCN(c2ccc(C(F)(F)F)c(F)c2)CC1` [Compound I-107]: the results for the IC50 (at NR1/NR2B receptor (setting [4]); in data set [1] (setting [5])) were at most 0.1 µM and at most 100 nM, respectively. On to `O=C(Nc1ccc2[nH]c(=O)oc2c1)C(=O)N1CCN(c2ccc(Cl)c(F)c2)CC1` [Compound I-109], for which the IC50 is 0.012 µM at NR1/NR2B receptor (setting [2]) and 1 nM in data set [1] (setting [3]).

On to `O=C(Nc1cnc2[nH]c(=O)oc2c1)C(=O)N1CCN(c2ccc(Cl)c(F)c2)CC1` [Compound I-113], for which the results for the IC50 (on NR1/NR2B receptor (setting [2]); in data set [1] (setting [3])) were 0.034 µM and 34 nM, respectively. Regarding `O=C(Nc1ccc2[nH]c(=O)oc2c1)C(=O)N1CCCN(c2ccc(C(F)(F)F)c(F)c2)CC1` [Compound I-114], the figures for the IC50 (on NR1/NR2B receptor (setting [4]); in data set [1] (setting [5])) were at most 0.1 µM and at most 100 nM, respectively. In the case of `O=C(CC1(O)CCN(c2ccc(C(F)(F)F)c(F)c2)CC1)Nc1ccc2[nH]c(=O)oc2c1` [Compound I-116], the IC50 at NR1/NR2B receptor (setting [2]) was 0.049 µM; in data set [1] (setting [3]), 49 nM. For `O=C(Nc1ccc2[nH]c(=O)oc2c1)C(=O)N1CCCN(c2ccc(Cl)c(F)c2)CC1` [Compound I-154], in that order: 0.044 µM and 4 nM. With `C[C@@H]1CN(C(=O)C(=O)Nc2ccc3[nH]c(=O)oc3c2)CCN1c1ccc(Cl)cc1` [Compound I-177], the IC50 is 0.059 µM on NR1/NR2B receptor (setting [2]) and at most 100 nM in data set [1] (setting [5]).

Take `C[C@@H]1CN(c2ccc(Cl)cc2)CCN1C(=O)C(=O)Nc1ccc2[nH]c(=O)oc2c1` [Compound I-178]: the IC50 is 0.029 µM at NR1/NR2B receptor (setting [2]) and at most 100 nM in data set [1] (setting [5]).

With `O=C(C=C1CCN(c2ccc(C(F)(F)F)c(F)c2)CC1)Nc1ccc2[nH]c(=O)oc2c1` [Compound I-180], the IC50 was 0.062 µM on NR1/NR2B receptor (setting [2]) and 13 nM in data set [1] (setting [3]).

`O=C(C=C1CCN(c2ccc(Cl)c(Cl)c2)CC1)Nc1ccc2[nH]c(=O)oc2c1` [Compound I-184]: the values for the IC50 (on NR1/NR2B receptor (setting [2]); in data set [1] (setting [3])) were 0.041 µM and 11 nM, respectively. The corresponding values for `O=C(CC1(O)CCN(c2ccc(Cl)c(Cl)c2)CC1)Nc1ccc2[nH]c(=O)oc2c1` [Compound I-187] are 0.054 µM and 14 nM.

For the compound `O=C(NCCC1CCN(c2ccc(Cl)c(Cl)c2)CC1)c1ccc(=O)[nH]c1` [Compound I-196], the IC50 was 0.023 µM at NR1/NR2B receptor (setting [2]) and 15 nM in data set [1] (setting [3]).

Regarding `C[C@@H]1CN(C(=O)C(=O)Nc2ccc3[nH]c(=O)oc3c2)CCN1c1ccc(Cl)c(F)c1` [Compound I-207], the values for the IC50 (at NR1/NR2B receptor (setting [4]); in data set [1] (setting [5])) were at most 0.1 µM and at most 100 nM, respectively.

For `O=C(Nc1ccc2[nH]c(=O)oc2c1)C(=O)N1CCN(c2ccc(OC(F)(F)F)cc2)CC1` [Compound I-211], the results for the IC50 (on NR1/NR2B receptor (setting [4]); in data set [1] (setting [5])) were at most 0.1 µM and at most 100 nM, respectively. For `C[C@@H]1CN(c2ccc(F)c(Cl)c2)CCN1C(=O)C(=O)Nc1ccc2[nH]c(=O)oc2c1` [Compound I-221], in that order: at most 0.1 µM and at most 100 nM. The corresponding values for `O=C(C=C1CCN(c2ccc(OC(F)(F)F)cc2)CC1)Nc1ccc2[nH]c(=O)oc2c1` [Compound I-225] are at most 0.1 µM and at most 100 nM.

For `C[C@@H]1CN(c2ccc(C(F)(F)F)cn2)CCN1C(=O)C(=O)Nc1ccc2[nH]c(=O)oc2c1` [Compound I-227], the IC50 at NR1/NR2B receptor (setting [4]) was at most 0.1 µM; in data set [1] (setting [5]), at most 100 nM. For `C[C@@H]1CN(C(=O)C(=O)Nc2ccc3[nH]c(=O)oc3c2)CCN1c1ccc(Cl)cn1` [Compound I-228], in that order: at most 0.1 µM and at most 100 nM. Take `O=C(NCCC1CCN(c2ccc(OC(F)(F)F)cc2)CC1)c1ccc(=O)[nH]c1` [Compound I-230]: the IC50 at NR1/NR2B receptor (setting [4]) was at most 0.1 µM; in data set [1] (setting [5]) it was at most 100 nM. As to `O=C(Nc1ccc2[nH]c(=O)oc2c1)C(=O)N1CCN(c2ccc(OC(F)F)cc2)CC1` [Compound I-233], the IC50 at NR1/NR2B receptor (setting [4]) was at most 0.1 µM; in data set [1] (setting [5]) it was at most 100 nM.

`O=C(C=C1CCN(c2ccc(OC(F)F)cc2)CC1)Nc1ccc2[nH]c(=O)oc2c1` [Compound I-237]: the IC50 was at most 0.1 µM at NR1/NR2B receptor (setting [4]) and at most 100 nM in data set [1] (setting [5]). For `COc1ccc(N2CCC(=CC(=O)Nc3ccc4[nH]c(=O)oc4c3)CC2)cc1F` [Compound I-238], in that order: at most 0.1 µM and at most 100 nM.
